# Literature values in patent publication US10220017B2, “Liquid pharmaceutical compositions comprising SGLT-2 inhibitors” (Boehringer Ingelheim Vetmedica GmbH, priority 2015, dated 2019).
# Settings: n-octanol/water; values taken from http://www.chemicalize.org/
row,log10P,Compound
1,−0.16,CCO [ethanol]
2,−1.84,"OCC(O)CO [propane-1,2,3-triol]"
3,−0.79,"CC(O)CO (stereo not drawn) [propane-1,2-diol]"
